Source: patent US20200331904A1, “3-AMINO-[1,2,4]-TRIAZOLE DERIVATIVES AND THEIR USE FOR CONTROLLING UNDESIRED PLANT GROWTH” (Bayer CropScience Aktiengesellschaft, priority 2017, published 2020)

Columns and labels:
Format in all cases: in vivo
Lolium rigidum [1] = experiment: Pre-emergence herbicidal efficacy, LOLRI; conditions: Table B1, application rate 320 g/ha, scored visually after about 3 weeks vs untreated controls
Method in brief: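 Seeds sown in pots and covered with soil. Greenhouse-grown about 3 weeks, then visually scored as % activity vs untreated controls (100% = dead, 0% = like control).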

Abutilon theophrasti [2] = experiment: Pre-emergence herbicidal efficacy, ABUTH; conditions: Table B1, application rate 320 g/ha, scored visually after about 3 weeks vs untreated controls
Method in brief: (§1)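 Visual percent activity relative to untreated plants (0% = like control, 100% = dead), scored about 3 weeks after treatment under greenhouse conditions.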

Viola tricolor [3] = experiment: Pre-emergence herbicidal efficacy, VIOTR; conditions: Table B1, application rate 320 g/ha, scored visually after about 3 weeks vs untreated controls
Method in brief: as §1

Abutilon theophrasti [4] = experiment: Post-emergence herbicidal efficacy, ABUTH; conditions: Table B6, one-leaf stage, application rate 320 g/ha, rated visually after about 3 weeks vs untreated controls
Excerpt: (§2) ABUTH: Abutilon theophrasti ALOMY: Alopecurus myosuroides AMARE: Amaranthus retroflexus AVEFA: Avena fatua CYPES: Cyperus esculentus ECHCG: Echinochloa crus-galli LOLMU: Lolium multiflorum MATIN: Matricaria inodora PHBPU: Ipomoea purpurea POLCO: Polygonum convolvulus SETVI: Setaria viridis STEME: Stellaria media VERPE: Veronica persica VTOTR: Viola tricolor
(§3) C.2 Post-Emergence Herbicidal Action and Crop Plant Compatibility
(§4) Seeds of monocotyledonous and dicotyledonous weeds and crop plants are placed in sandy loam in plastic or organic planting pots, covered with soil and cultivated in a greenhouse under controlled growth conditions. 2 to 3 weeks after sowing, the test plants are treated at the one-leaf stage. The compounds of the invention, formulated in the form of wettable powders (WP) or as emulsion concentrates (EC), are then sprayed onto the green parts of the plants as aqueous suspension or emulsion with addition of 0.5% additive at a water application rate of […] (converted). After the test plants had been kept in the greenhouse under optimum growth conditions for about 3 weeks, the activity of the preparations is rated visually in comparison to untreated controls. For example, 100% activity=the plants have died, 0% activity=like control plants.

Veronica persica [5] = experiment: Pre-emergence herbicidal efficacy, VERPE; conditions: Table B1, application rate 320 g/ha, scored visually after about 3 weeks vs untreated controls
Method in brief: as §1

Setaria viridis [6] = experiment: Post-emergence herbicidal efficacy, SETVI; conditions: Table B6, one-leaf stage, application rate 320 g/ha, rated visually after about 3 weeks vs untreated controls
Excerpt: as §2, §3, §4

Setaria viridis [7] = experiment: Pre-emergence herbicidal efficacy, SETVI; conditions: Table B1, application rate 320 g/ha, scored visually after about 3 weeks vs untreated controls
Method in brief: as §1

Polygonum convolvulus = experiment: Pre-emergence herbicidal efficacy, POLCO; conditions: Table B1, application rate 320 g/ha, scored visually after about 3 weeks vs untreated controls
Method in brief: as §1

Veronica persica [8] = experiment: Post-emergence herbicidal efficacy, VERPE; conditions: application rate 320 g/ha
Excerpt: as §2, §3, §4

Matricaria inodora = experiment: Pre-emergence herbicidal efficacy, MATIN; conditions: Table B1, application rate 320 g/ha, scored visually after about 3 weeks vs untreated controls
Method in brief: as §1

Echinochloa crus-galli [9] = experiment: Pre-emergence herbicidal efficacy, ECHCG; conditions: Table B1, application rate 320 g/ha, scored visually after about 3 weeks vs untreated controls
Method in brief: as §1

Stellaria media [10] = experiment: Pre-emergence herbicidal efficacy, STEME; conditions: Table B1, application rate 320 g/ha, scored visually after about 3 weeks vs untreated controls
Method in brief: as §1

Amaranthus retroflexus [11] = experiment: Post-emergence herbicidal efficacy, AMARE; conditions: application rate 320 g/ha
Excerpt: as §2, §3, §4

Amaranthus retroflexus [12] = experiment: Pre-emergence herbicidal efficacy, AMARE; conditions: Table B1, application rate 320 g/ha, scored visually after about 3 weeks vs untreated controls
Method in brief: as §1

Lolium rigidum [13] = experiment: Post-emergence herbicidal efficacy, LOLRI; conditions: application rate 320 g/ha, rated visually after about 3 weeks
Protocol: as §3, §4

Viola tricolor [14] = experiment: Post-emergence herbicidal efficacy, VIOTR; conditions: application rate 320 g/ha
Excerpt: as §2, §3, §4

Echinochloa crus-galli [15] = experiment: Post-emergence herbicidal efficacy, ECHCG; conditions: application rate 320 g/ha, rated visually after about 3 weeks
Excerpt: as §2, §3, §4

Stellaria media [16] = experiment: Post-emergence herbicidal efficacy, STEME; conditions: application rate 320 g/ha, rated visually after about 3 weeks
Excerpt: as §2, §3, §4

harmful plants = experiment: Post-emergence herbicidal action; conditions: applied post-emergence
Protocol: as §3, §4

[17] = Table B6, one-leaf stage, rated visually after about 3 weeks vs untreated controls
[18] = rated visually after about 3 weeks (Table B5)
[19] = rated visually after about 3 weeks
[20] = rated visually after about 3 weeks (Table B7)

SMILES | Herbicidal efficacy against LOLRI (Lolium rigidum [1]) [%] | Herbicidal efficacy against ABUTH (Abutilon theophrasti [2]) [%] | Herbicidal efficacy against VIOTR (Viola tricolor [3]) [%] | Herbicidal efficacy against VERPE (Veronica persica [5]) [%] | Herbicidal efficacy against SETVI (Setaria viridis [7]) [%] | Herbicidal efficacy against POLCO (Polygonum convolvulus) [%] | Herbicidal efficacy against MATIN (Matricaria inodora) [%] | Herbicidal efficacy against ECHCG (Echinochloa crus-galli [9]) [%] | Herbicidal efficacy against STEME (Stellaria media [10]) [%] | Herbicidal efficacy against AMARE (Amaranthus retroflexus [12]) [%] | Herbicidal efficacy against LOLRI (Lolium rigidum [13]) [%] | Herbicidal efficacy against VIOTR (Viola tricolor [14]; [18]) [%] | Herbicidal efficacy against ECHCG (Echinochloa crus-galli [15]) [%] | Herbicidal efficacy against VERPE (Veronica persica [8]; [18]) [%] | Herbicidal efficacy against AMARE (Amaranthus retroflexus [11]; [19]) [%] | Herbicidal efficacy against STEME (Stellaria media [16]) [%] | further results
CC(=O)N1CCn2nc(N[C@@H]3CCCc4ccc(C)cc43)nc2C1 [Example I-180] | 100 | 100 | 100 | 100 | 100 | 100 | 100 | 100 | 100 | 100 |  |  |  |  |  |  | Herbicidal efficacy against ABUTH (Abutilon theophrasti [4]): 80%; Herbicidal efficacy against SETVI (Setaria viridis [6]): 80%; Herbicidal efficacy against VERPE (Veronica persica [8]; [17]): 80%; Herbicidal efficacy against AMARE (Amaranthus retroflexus [11]; [17]): 80%
Cc1ccc2c(c1)C(Nc1nc3n(n1)CCCCS3)CCC2 (stereo not drawn) [Example I-214] | 100 | 100 | 100 | 100 | 100 | 100 | 100 | 100 | 100 | 100 |  |  |  |  |  |  | Herbicidal efficacy against ABUTH (Abutilon theophrasti [4]): 80%; Herbicidal efficacy against SETVI (Setaria viridis [6]): 100%; Herbicidal efficacy against VERPE (Veronica persica [8]; [17]): 100%; Herbicidal efficacy against AMARE (Amaranthus retroflexus [11]; [17]): 80%
Cc1ccc2c(c1)C(Nc1nc3n(n1)CCCCS3(=O)=O)CC2 (stereo not drawn) [Example I-232] | 100 | 100 | 100 | 100 | 100 | 100 | 100 | 100 | 100 | 100 | 90 | 90 | 80 | 90 | 100 | 100 | 
Cc1ccc2c(c1)C(Nc1nc3n(n1)CCCCS3(=O)=O)CCC2 (stereo not drawn) [Example I-234] | 100 | 100 | 100 | 100 | 100 | 100 | 100 | 100 | 100 | 100 |  |  |  |  |  |  | Herbicidal efficacy against VIOTR (Viola tricolor [14]; [20]): 90%; Herbicidal efficacy against VERPE (Veronica persica [8]; [20]): 80%
Cc1ccc2c(c1)C(Nc1nc3n(n1)CCCC[S+]3[O-])CC2 (stereo not drawn) [Example I-245] | 100 | 100 | 100 | 100 | 100 | 100 | 100 | 100 | 100 | 100 |  |  |  |  |  |  | Herbicidal efficacy against VIOTR (Viola tricolor [14]; [20]): 80%; Herbicidal efficacy against VERPE (Veronica persica [8]; [20]): 90%
Cc1ccc2c(c1)C(Nc1nc3n(n1)CCCCS3)CC2 (stereo not drawn) [Example I-248] | 100 | 100 | 100 | 100 | 100 | 100 | 100 | 100 | 100 | 100 | 100 | 90 | 100 | 90 | 90 | 100 | herbicidal efficacy against harmful plants (harmful plants): very good herbicidal efficacy
Cc1ccc2c(c1)[C@H](Nc1nc3n(n1)CCCCS3)CC2 [Example I-353] | 100 | 100 | 100 | 100 | 100 | 100 | 100 | 100 | 100 | 100 | 100 | 80 | 100 | 90 | 90 | 100 | herbicidal efficacy against harmful plants (harmful plants): very good herbicidal efficacy
Cc1ccc2c(c1)C(Nc1nc3n(n1)CCCCS3)C(C)C2 (stereo not drawn) [Example I-354] | 100 | 100 | 100 | 100 | 100 | 100 | 100 | 100 | 100 | 100 | 100 | 80 | 100 | 100 | 80 | 100 | 
c1ccc2c(c1)CCC[C@H]2Nc1nc2n(n1)CCCCS2 [Example I-355] | 80 | 100 | 100 | 100 | 100 | 100 | 100 | 100 | 100 | 100 |  | 80 | 100 | 80 | 80 | 100 | 
Cc1ccc2c(c1)C(Nc1nc3n(n1)CCCCS3(=O)=O)C(C)C2 (stereo not drawn) [Example I-366] | 100 | 100 | 100 | 100 | 100 | 100 | 100 | 100 | 100 | 100 | 90 |  | 100 |  | 80 | 90 | 
Cc1ccc2c(c1)[C@H](Nc1nc3n(n1)CCCCS3)CCC2 [Example I-402] | 100 | 100 | 100 | 100 | 100 | 100 | 100 | 100 | 100 | 100 |  | 90 | 100 | 90 | 90 | 90 | 
